Laboratory results taken from patent publication US3954793A, “1-(2-Propynyl)-1 H-indazole compounds” (priority 1973, dated 1976).
Where two headings read alike, the source gives them in different places.

What was measured:
[1] = test system: Wilson strain house flies; type: in vivo, Wilson strain (susceptible); details: for Contact Synergistic Ratio, Pyrolan: LC50 pyrolan alone / LC50 with synergist
Summary of the method: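 Wilson strain house flies held at room temperature in glass jars coated with acetone-deposited insecticide film, alone or with synergist at 5:1 synergist:insecticide by weight.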

[2] = test system: Rutgers A strain house flies; experiment: topical application, percent kill after 24 hours, resistant Rutgers A strain; type: in vivo, female); details: for percent kill after 24 hours, with GS 13005: GS 13005 1.0 + synergist 5.0 μg/fly
Summary of the method: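 Synergist plus mobam, Diazinon or GS 13005 dissolved in acetone, applied as 1.0 μl to the thorax of CO2-anaesthetised 3-to-5 day old female Rutgers A (resistant) house flies; doses in μg/fly. Flies held 10 per dish, 3-5 dishes per treatment, with skim milk; mortality scored at 24 h.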

[3] = test system: German male cockroaches (Blatella Germanicus); experiment: topical application to thorax, 24 hour mortality of German male cockroaches; type: in vivo; details: for percent insect mortality, synergist alone (mobam test doses): synergist doses of Table XXXX; for percent insect mortality, synergist alone (mobam test doses) / percent insect mortality, synergist alone (GS 13005 test doses): no insecticide; for percent insect mortality, synergist alone (GS 13005 test doses): synergist doses of Table XXXXI
Procedure: The synergistic effect with mobam of synergist compounds I-B, II-H, II-K and IV-C is further illustrated by the 24 hour mortality data of German male cockroaches (Blatella Germanicus) shown in Table XXXX. The synergists and insecticide were diluted in acetone and applied in small droplets to the thorax of the insect. These doses of synergist alone gave zero percent insect mortality.
The synergistic effect with GS 13005 of compounds I-B, II-H, II-K, II-P, II-Q, II-R and IV-C is illustrated by the 24 hour mortality of German male cockroaches shown in Table XXXXI. These doses of synergist alone caused zero percent insect mortality.

[4] = test system: polyvalent resistant (CH strain) houseflies; experiment: whole plant or invertebrate; type: in vivo; details: CH strain; for percent kill after 24 hours, with Dimetilan: Dimetilan 2 + synergist 4 μg/fly; for percent kill after 24 hours, with GS 13005: GS 13005 1 + synergist 2 μg/fly; for percent kill after 24 hours, with GS 13798: GS 13798 1 + synergist 2 μg/fly; for mortality at 10 µg/fly: Musca domestica, topical, 24 h, read-out: percent kill after 24 hours, synergist alone; for mortality at 10 µg/fly / percent kill after 24 hours, synergist alone: insecticide 0, synergist 10 μg/fly; for percent kill after 24 hours, with pyrethrum: Pyrethrum 2 + synergist 4 μg/fly
Procedure: The effect of O-(2-propynyl) oximes with Dimetilan and with GS 13798 was obtained from tests on polyvalent resistant (CH strain) houseflies that had been chilled and to the dorsal region of which was applied an acetone solution of synergist and insecticide at a ratio of two to one. Duplicate tests were performed using 10 four to five-day old female houseflies per test. After dosage, the flies were put in a plastic petri dish with cotton soaked in a sugar-water solution. These doses of insecticide used without synergist caused 10-40% mortality.
In Table IX, and in the tables following it, the doses of topically applied insecticides and of synergists unless otherwise noted are expressed as micrograms per fly (μg/fly).
The effect of compounds II-C, II-D and II-E with Dimetilan and GS 13798 was determined, following the procedure of Example 5, from tests on polyvalent resistant (CH strain) houseflies. These doses of insecticide used without synergist caused 10-40% mortality.
The synergistic effect with GS 13005 of compounds I-A, I-B, I-D, I-E, I-F, I-G and I-I was determined from topical application tests to IN/WHO strain, Rutgers A strain and polyvalent CH strain houseflies using the procedures of Example 5. The percent kills of the IN/WHO strain flies after 24 hours are shown in Table XXVIII; of the Rutgers A strain, in Table XXIX; and of the polyvalent CH strain, in Table XXX. The doses of insecticide alone to the CH strain files caused 10-40% mortality.
The synergistic effect with Diazinon and GS 13005 of various of the benzyl 2-propynyl ethers identified in Tables II and IIa was determined by topical application tests on IN/WHO strain, and Rutgers A strain and polyvalent, resistant, CH strain houseflies using the procedures of Example 5. The percent kills after 24 hours of IN/WHO strain flies are shown in Table XXXI; of Rutgers A strain flies, in Table XXXII; and of CH strain flies, in Table XXXIII. The doses of insecticide alone to the CH strain flies caused 10-40% mortality.
The synergistic effect with pyrethrum of various synergist compounds was determined by topical application tests on polyvalent, resistant CH strain houseflies following the procedure of Example 5. Application of the insecticide alone caused 10-40% mortality.

[5] = synergist to insecticide 5:1 by weight
[6] = Diazinon 1.0 + synergist 3.0 μg/fly
[7] = Diazinon 3.0 + synergist 3.0 μg/fly
[8] = Mobam 0.30 + synergist 1.5 μg/fly
[9] = insecticide 0, synergist 5.0 μg/fly
[10] = GS 13005 dose 0.08 + synergist 0.40, pretreated with synergist two hours before insecticide
[11] = GS 13005 dose 0.08 + synergist 4.0, cockroaches
[12] = Mobam dose 0.12 + synergist 0.60, pretreated with synergist two hours before insecticide
[13] = Mobam dose 0.16 + synergist 0.80, cockroaches
[14] = Diazinon 1.5 + synergist 7.5 μg/fly
[15] = Mobam 0.15 + synergist 0.75 μg/fly
[16] = Mobam 0.60 + synergist 3.0 μg/fly
[17] = insecticide 0, synergist 7.5 μg/fly
[18] = Diazinon 3.0 + synergist 15 μg/fly
[19] = insecticide 0, synergist 15 μg/fly
[20] = Mobam 0.40 + synergist 2.0 μg/fly

Row | Compound | Contact Synergistic Ratio, Pyrolan [1, 5] | Contact Synergistic Ratio, Carbaryl ([1]; in vivo) | percent kill after 24 hours, with GS 13005 [2] | percent kill after 24 hours, with Mobam [2, 8] | percent kill after 24 hours, synergist alone [2, 9] | 24 hour mortality, with GS 13005 [3, 10] | percent insect mortality, synergist alone (GS 13005 test doses) [3] | percent kill after 24 hours, with GS 13005 [4] | mortality at 10 µg/fly [4] | percent kill after 24 hours, synergist alone [4] | percent kill after 24 hours, synergist alone [2, 17] | other results
1 | C#CCON=Cc1cccc([N+](=O)[O-])c1 [I-B] | 35 | 270 | 100% | 40% | 0% | 95% | zero |  |  |  |  | percent kill after 24 hours, with Diazinon [2, 6]: 5%; percent kill after 24 hours, with Diazinon [2, 7]: 90%; 24 hour mortality, with GS 13005 [3, 11]: 40%; 24 hour mortality, with Mobam [3, 12]: 80%; 24 hour mortality, with Mobam [3, 13]: 50%; percent insect mortality, synergist alone (mobam test doses) [3]: zero
2 | C#CCON=C(C)c1ccc(Cl)cc1 [I-D] | 25 | 177 |  | 95% |  |  |  | 100% | 0% | 0% | 0% | percent kill after 24 hours, with Dimetilan [4]: 100%; percent kill after 24 hours, with GS 13798 [4]: 100%; percent kill after 24 hours, with Diazinon [2, 14]: 69%; percent kill after 24 hours, with Mobam [2, 15]: 19%; percent kill after 24 hours, with Mobam [2, 16]: 100%
3 | C#CCON=C(C)c1ccc2ccccc2c1 [I-F] | 50 | 200 | 95% | 38% | 0% |  |  | 100% | 0% | 0% |  | percent kill after 24 hours, with Dimetilan [4]: 100%; percent kill after 24 hours, with pyrethrum [4]: 35%; percent kill after 24 hours, with Diazinon [2, 6]: 5%; percent kill after 24 hours, with Diazinon [2, 7]: 95%
4 | C#CCON=Cc1ccc(Cl)cc1Cl [I-G] |  |  |  |  |  |  |  | 100% | 0% | 0% | 0% | percent kill after 24 hours, with pyrethrum [4]: 47%; percent kill after 24 hours, with Diazinon [2, 14]: 60%; percent kill after 24 hours, with Diazinon [2, 18]: 100%; percent kill after 24 hours, synergist alone [2, 19]: 0%
5 | C#CCON=Cc1cccc2ccccc12 [I-I] |  |  |  |  |  |  |  | 47% | 0% | 0% | 0% | percent kill after 24 hours, with Diazinon [2, 14]: 0%; percent kill after 24 hours, with Diazinon [2, 18]: 53%; percent kill after 24 hours, synergist alone [2, 19]: 0%
6 | C#CCOCc1ccc(Cl)c(Cl)c1 [II-C] | 15 |  |  | 20% |  |  |  |  | 0% | 0% | 0% | Contact Synergistic Ratio, Carbaryl ([1]; LC50 carbaryl alone / LC50 with synergist, synergist to insecticide 5:1 by weight): 100; percent kill after 24 hours, with Dimetilan [4]: 100%; percent kill after 24 hours, with Mobam [2, 16]: 67%
7 | C#CCOCc1ccc(Cl)c(Cl)c1Cl [II-D] | 30 | 200 |  |  |  |  |  |  | 0% | 0% | 0% | percent kill after 24 hours, with Dimetilan [4]: 100%; percent kill after 24 hours, with GS 13798 [4]: 100%; percent kill after 24 hours, with pyrethrum [4]: 30%; percent kill after 24 hours, with Mobam [2, 16]: 92%
8 | C#CCOCc1c(Cl)ccc(Cl)c1Cl [II-E] | 20 | 120 |  | 70% |  |  |  | 100% | 10% | 10% | 0% | percent kill after 24 hours, with GS 13798 [4]: 100%; percent kill after 24 hours, with Mobam [2, 15]: 17%; percent kill after 24 hours, with Mobam [2, 16]: 99%
9 | C#CCOCc1cc(Cl)c(Cl)cc1Cl [II-F] | 15 | 150 |  |  |  |  |  |  |  |  |  | 
10 | C#CCOCc1c(Cl)cccc1Cl [II-H] | 40 | 300 | 100% |  | 7% | 100% | zero |  |  |  |  | percent kill after 24 hours, with Mobam [2, 20]: 100%; 24 hour mortality, with Mobam [3, 12]: 90%; percent insect mortality, synergist alone (mobam test doses) [3]: zero
11 | C#CCOCc1c(Cl)cccc1[N+](=O)[O-] [II-K] |  |  | 100% |  | 0% | 100% | zero |  |  |  |  | percent kill after 24 hours, with Mobam [2, 20]: 97%; 24 hour mortality, with Mobam [3, 12]: 100%; percent insect mortality, synergist alone (mobam test doses) [3]: zero
12 | C#CCOCc1ccccc1[N+](=O)[O-] [II-P, 2-nitrobenzyl 2-propynyl ether] |  |  | 92% |  | 0% | 90% | zero |  |  |  |  | 24 hour mortality, with GS 13005 [3, 11]: 60%
13 | C#CCOCc1ccc([N+](=O)[O-])cc1 [II-Q, 4-nitrobenzyl 2-propynyl ether] |  |  | 100% |  | 0% | 95% | zero |  |  |  |  | 
14 | C#CCOCc1cccc2ccccc12 [II-R, α-napthylmethyl 2-propynyl ether] |  |  | 55% |  | 0% | 100% | zero |  |  |  |  | 
15 | C#CCOC(c1ccc(Cl)cc1)C(C)[N+](=O)[O-] (centres unmarked) [IV-C] |  |  | 95% |  | 0% | 90% | zero |  |  |  |  | percent kill after 24 hours, with Diazinon [2, 7]: 19%; 24 hour mortality, with GS 13005 [3, 11]: 30%; 24 hour mortality, with Mobam [3, 12]: 60%; 24 hour mortality, with Mobam [3, 13]: 40%; percent insect mortality, synergist alone (mobam test doses) [3]: zero
